# Laboratory results taken from patent US5616684A, “Cyclic peptides and use thereof” (priority 1991, dated 1997).
# Non-standard residues stand in square brackets, D forms with d. Residues, ends and D or L forms follow the SMILES beside them. *: point of attachment. Hyp = O=C(O)[C@@H]1C[C@@H](O)CN1; d2Thi = N[C@H](Cc1cccs1)C(=O)O; dPhg = N[C@@H](C(=O)O)c1ccccc1; Bn = c1ccc(C*)cc1
# Assays:
# [1] = amide bond; 18-membered ring; HONB ester (HONB/DCC)/TEA; DMF; 5.0 mM; 4 steps
# [2] = target: T1, endothelin receptor B (ETB) (Bos taurus, UniProt P28088); assay: Assay of Affinity for Receptor (2): Binding Activity on ETB Receptor *1; design: key: relative specific activity, Example 8 compound = 100; details: specific activity, binding activity of the compound of Example 8 taken as 100; bovine brain membrane fraction, 125I labeled endothelin-1, 25° C., 1 hour
# T1 construct: A membrane fraction prepared from the bovine brain; from tissue; host or cells: bovine brain membrane fraction
# T1 sequence (P28088 27-441): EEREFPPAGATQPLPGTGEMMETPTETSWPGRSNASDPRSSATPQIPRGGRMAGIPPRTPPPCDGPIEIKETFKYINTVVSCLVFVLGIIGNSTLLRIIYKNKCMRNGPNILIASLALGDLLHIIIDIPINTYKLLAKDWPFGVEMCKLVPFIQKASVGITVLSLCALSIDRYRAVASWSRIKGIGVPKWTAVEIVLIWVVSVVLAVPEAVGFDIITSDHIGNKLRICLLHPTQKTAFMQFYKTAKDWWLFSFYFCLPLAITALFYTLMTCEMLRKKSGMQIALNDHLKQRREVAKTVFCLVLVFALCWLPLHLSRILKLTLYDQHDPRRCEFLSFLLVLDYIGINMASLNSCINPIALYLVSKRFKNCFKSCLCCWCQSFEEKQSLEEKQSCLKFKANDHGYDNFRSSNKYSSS
# Method: Assay of Affinity for Receptor (2) . . . Binding Activity on ETB Receptor *1
# A membrane fraction prepared from the bovine brain was diluted to 0.15 mg/ml by using a buffer solution for assay, and 100 μl of the resulting suspension of the membrane fraction was poured into each assay tube to use for assay. To this suspension of the membrane fraction was added 2 μl of 5 nM ^125 I labeled endothelin-1 solution. Further, 3 μl of a test peptide solution was added thereto, followed by incubation at a temperature of 25° C. for 1 hour. Then, the resulting suspension was diluted with 900 μl of the buffer solution for assay cooled with ice, and thereafter separated into a supernatant and a precipitate by centrifugation at 12,000×g for 10 minutes. Cell membranes and an endothelin receptor B (ETB) embedded therein were contained in the precipitate, and radioactive iodine-labeled endothelin bound to the receptor was also recovered in the precipitate. Accordingly, the amount of radioactive iodine-labeled endothelin bound to the endothelin receptor B (ETB) was determined by measuring the amount of radioactive iodine contained in the precipitate with a gamma-ray counter. The numerical value of ETB shown in Table 1 is the value of specific activity, taking the binding activity of the compound of Example 8 on the receptor B as 100.
# [3] = target: T2, endothelin receptor A (ETA) (Sus scrofa, UniProt Q29010); assay: Assay of Affinity for Receptor (1): Binding Activity on ETA Receptor; design: key to Binding Activity on ET Receptor (R. act.) ETA: relative binding activity; reference cyclic pentapeptide = 1.0; details: specific activity, binding activity of cyclo[-D-Glu-Ala-D-aIle-Leu-D-Trp-] taken as 1.0; porcine heart membrane fraction, 125I-labeled endothelin-1, 25° C., 1 hour
# T2 construct: A membrane fraction prepared from the porcine heart; from tissue; host or cells: porcine heart membrane fraction
# T2 sequence (Q29010 21-427): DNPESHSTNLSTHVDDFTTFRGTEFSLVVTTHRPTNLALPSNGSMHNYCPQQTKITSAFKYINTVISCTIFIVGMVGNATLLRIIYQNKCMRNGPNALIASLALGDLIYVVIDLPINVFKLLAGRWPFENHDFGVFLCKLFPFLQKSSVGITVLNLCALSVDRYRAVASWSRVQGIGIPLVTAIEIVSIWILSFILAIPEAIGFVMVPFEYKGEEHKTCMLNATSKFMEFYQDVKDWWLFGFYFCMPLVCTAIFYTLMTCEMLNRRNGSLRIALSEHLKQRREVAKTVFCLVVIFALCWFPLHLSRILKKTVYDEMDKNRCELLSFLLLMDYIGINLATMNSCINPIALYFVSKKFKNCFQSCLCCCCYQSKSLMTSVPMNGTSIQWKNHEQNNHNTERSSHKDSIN
# Summary of the method: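 Porcine heart membranes (0.15 mg/ml) incubated with 125I-endothelin-1 and test peptide for 1 h at 25 °C, then diluted with ice-cold buffer and pelleted at 12,000×g; bound radioactivity gamma-counted. Values expressed as specific activity relative to cyclo[-D-Glu-Ala-D-aIle-Leu-D-Trp-] set at 1.0.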
# [4] = system: ETB receptor (guinea pig kidney crude receptor membrane fraction); assay: ETB Radio Receptor Assay *2; assay type: binding; details: relative activity (Example 8 given as 100), 125I-endothelin-1, 37° C., 90 minutes
# Summary of the method: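 Crude membranes from guinea pig kidney (2.1 μg protein) incubated with 740 Bq ^125I-endothelin-1 and test sample, 90 min at 37 °C, in 50 mM Tris-HCl pH 7.4 with 0.1 mM PMSF, 1 mM EDTA, 0.2% BSA. Bound ligand separated by fast filtration and counted by gamma counter.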
Binding Activity on ET Receptor (R. act.) ET8 *1 [2],Binding Activity on ET Receptor (R. act.) ETA [3],Binding Activity on ET Receptor (R. act.) ET8 *2 [4],Molecule,"ring closure, yield after HPLC [1] [%]"
–,–,–,cyclo[-D-Asp-Trp-Asp-D-tLeu-Leu-D-Trp-],42.8
66,13,170,"CC(C)C[C@@H]1NC(=O)[C@@H](CC(C)C)NC(=O)[C@H](COCc2ccccc2)NC(=O)[C@H](Cc2c[nH]c3ccccc23)NC(=O)[C@@H](CC(=O)O)NC(=O)[C@@H](Cc2c[nH]c3ccccc23)NC1=O [Example 38, Cyclo[--D--Asp--Trp--Ser(Bzl)--D--Leu--Leu--D--Trp--]] (cyclo(L[dW][dD]WS(Bn)[dL]))",–
100,76,100,"CC(C)C[C@@H]1NC(=O)[C@@H](CC(C)C)NC(=O)[C@H](CC(=O)O)NC(=O)[C@H](Cc2c[nH]c3ccccc23)NC(=O)[C@@H](CC(=O)O)NC(=O)[C@@H](Cc2c[nH]c3ccccc23)NC1=O [Example 8, cyclo[-D-Asp-Trp-Asp-D-Leu-Leu-D-Trp-]] (cyclo(D[dL]L[dW][dD]W))",–
6.7,0.7,22,"CC(C)C[C@H]1NC(=O)[C@H](CC(=O)O)NC(=O)[C@H](C)NC(=O)[C@@H](CC(=O)O)NC(=O)[C@@H](Cc2c[nH]c3ccccc23)NC(=O)[C@H](Cc2c[nH]c3ccccc23)NC1=O [Example 58, Cyclo[--D--Asp--Ala--Asp--D--Leu--Trp--D--Trp--]] (cyclo(AD[dL]W[dW][dD]))",–
77,20,44,"CC(C)C[C@@H]1NC(=O)[C@@H](CC(C)C)NC(=O)[C@H](CCC(=O)O)NC(=O)[C@H](Cc2c[nH]c3ccccc23)NC(=O)[C@@H](CC(=O)O)NC(=O)[C@@H](Cc2c[nH]c3ccccc23)NC1=O [Example 34, Cyclo[--D--Asp--Trp--Glu--D--Leu--Leu--D--Trp--]] (cyclo(E[dL]L[dW][dD]W))",–
74,87,180,"CC(C)C[C@@H]1NC(=O)[C@@H](c2ccccc2)NC(=O)[C@H](CC(=O)O)NC(=O)[C@H](Cc2c[nH]c3ccccc23)NC(=O)[C@@H](CC(=O)O)NC(=O)[C@@H](Cc2c[nH]c3ccccc23)NC1=O [Example 45, Cyclo[--D--Asp--Trp--Asp--D--Phg--Leu--D--Trp--]] (cyclo(D[dPhg]L[dW][dD]W))",–
210,1,44,"CC(C)C[C@@H]1NC(=O)[C@@H](Cc2ccccc2)NC(=O)[C@H](CC(=O)O)NC(=O)[C@H](Cc2c[nH]c3ccccc23)NC(=O)[C@@H](CC(=O)O)NC(=O)[C@@H](Cc2c[nH]c3ccccc23)NC1=O [Example 60, Cyclo[--D--Asp--Trp--Asp--D--Phe--Leu--D--Trp--]] (cyclo(D[dF]L[dW][dD]W))",–
45,750,71,cyclo[-D-Asp-Glu(Bzl)-Asp-D-Thg(2)-Leu-D-Trp-] [Example 89],–
350,4,57,"CC(C)C[C@@H]1NC(=O)[C@@H](Cc2cccs2)NC(=O)[C@H](CC(=O)O)NC(=O)[C@H](Cc2c[nH]c3ccccc23)NC(=O)[C@@H](CC(=O)O)NC(=O)[C@@H](Cc2c[nH]c3ccccc23)NC1=O [Example 50, Cyclo[--D--Asp--Trp--Asp--D--Thi--Leu--D--Trp--]] (cyclo(D[d2Thi]L[dW][dD]W))",–
160,70,120,"CC(C)C[C@@H]1NC(=O)[C@@H](CC(C)C)NC(=O)[C@H](CC(=O)O)NC(=O)[C@@H]2C[C@@H](O)CN2C(=O)[C@@H](CC(=O)O)NC(=O)[C@@H](Cc2c[nH]c3ccccc23)NC1=O [Example 14, cyclo[-D-Asp-Hyp-Asp-D-Leu-Leu-D-Trp-]] (cyclo(D[dL]L[dW][dD][Hyp]))",–
